Literature values, collected in patent US20070053892A1, “Methods and kits for co-administration of nutritional supplements” (Everett Laboratories, Inc., priority 2005, published 2007).

What was measured:
[1] = patients with congestive heart failure
[2] = patients with hypertension
[3] = patients with cardiomyopathy
[4] = patients with ischemic heart disease

SMILES: COC1=C(OC)C(=O)C(C/C=C(\C)CC/C=C(\C)CC/C=C(\C)CC/C=C(\C)CC/C=C(\C)CC/C=C(\C)CC/C=C(\C)CC/C=C(\C)CC/C=C(\C)CCC=C(C)C)=C(C)C1=O [CoQ10, coenzyme Q10]
- myocardial metabolic function, blood pressure, myocardial thickness [1]: improve myocardial metabolic function, reduce blood pressure, and reduce myocardial thickness
- blood pressure [2]: significantly reduce blood pressure
- cardiac function including ejection fraction and cardiac output [3]: significant improvement in cardiac function
- magnitude and rate of clinical improvement [4]: enhances both the magnitude and rate of clinical improvement
